Measurements taken from ChEMBL document CHEMBL1154551, “Microbial transformation of benzosampangine” (2000).
In brackets after ≈: the same amount, converted by molar mass.

How the values were obtained:
Assay type in all cases: functional
[1] = tested on: Cryptococcus neoformans; assay: Antimicrobial activity against Cryptococcus neoformans
[2] = tested on: Candida albicans; assay: Antimicrobial activity against Candida albicans
[3] = tested on: Aspergillus fumigatus; assay: Antimicrobial activity against Aspergillus fumigatus

| MIC [1] [µg/mL] | MIC [2] [µg/mL] | MIC [3] [µg/mL] | SMILES |
| --- | --- | --- | --- |
| 0.39 (≈ 0.422 µM) | – | – | C[C@@H]1[C@H](O)[C@@H](C)/C=C/C=C/C=C/C=C/C=C/C=C/C=C/[C@H](O[C@@H]2O[C@H](C)[C@@H](O)[C@H](N)[C@@H]2O)C[C@@H]2O[C@](O)(C[C@@H](O)C[C@@H](O)[C@H](O)CC[C@@H](O)C[C@@H](O)CC(=O)O[C@H]1C)C[C@H](O)[C@H]2C(=O)O [AMPHOTERICIN B] |
| 1.56 (≈ 5.53 µM) | 0.39 (≈ 1.38 µM) | 0.39 (≈ 1.38 µM) | O=C1c2ccccc2-c2nccc3c2c1nc1ccccc13 [BENZOSAMPANGINE] |
